Results reported in ChEMBL document CHEMBL1201862, “PubChem BioAssay data set” (2004).
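Compound exposure: 48 hours, 5 concentrations, 96-well plates. Abbreviation: GI50, concentration required for 50% inhibition of growth.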 The source made the active and inactive calls. No stated cut-off is given here; in the data, active = GI50 up to about 1.1 µM and inactive = higher.

Tests used:
Experiment in all cases: inhibition of tumour cell growth, NCI panel, 48 h
HCT-15 = tested on: HCT-15
Malme-3M = tested on: Malme-3M
SNB-75 = tested on: SNB-75
NCI-H522 = tested on: NCI-H522
ACHN = tested on: ACHN
UACC-62 = tested on: UACC-62
NCI-H226 = tested on: NCI-H226
SK-MEL-5 = tested on: SK-MEL-5
HCT-116 = tested on: HCT-116
DMS-114 = tested on: DMS-114
IGROV-1 = tested on: IGROV-1
SN12C = tested on: SN12C
SF-539 = tested on: SF-539
KM12 = tested on: KM12
NCI-H23 = tested on: NCI-H23
UO-31 = tested on: UO-31
HT-29 = tested on: HT-29
OVCAR-8 = tested on: OVCAR-8
SNB-78 = tested on: SNB-78
DMS-273 = tested on: DMS-273
MOLT-4 = tested on: MOLT-4
A498 = tested on: A498
A549 = tested on: A549
DLD-1 = tested on: DLD-1
SF-268 = tested on: SF-268
SK-MEL-28 = tested on: SK-MEL-28
LOX IMVI = tested on: LOX IMVI
SF-295 = tested on: SF-295
OVCAR-4 = tested on: OVCAR-4
CCRF-CEM = tested on: CCRF-CEM
NCI-H460 = tested on: NCI-H460
HL-60 = tested on: HL-60
SNB-19 = tested on: SNB-19
OVCAR-3 = tested on: OVCAR-3
SK-MEL-2 = tested on: SK-MEL-2
LXFL 529 = tested on: LXFL 529
U-251 = tested on: U-251
TK-10 = tested on: TK-10
UACC-257 = tested on: UACC-257
RXF 393 = tested on: RXF 393
SK-OV-3 = tested on: SK-OV-3
K562 = tested on: K562
SW-620 = tested on: SW-620
M19-MEL = tested on: M19-MEL
EKVX = tested on: EKVX
XF498 = tested on: XF498
786-0 = tested on: 786-0
HOP-62 = tested on: HOP-62
COLO 205 = tested on: COLO 205
RPMI-8226 = tested on: RPMI-8226
SR = tested on: SR
HOP-92 = tested on: HOP-92
M14 = tested on: M14
KM-20L2 = tested on: KM-20L2
HCC 2998 = tested on: HCC 2998
CAKI-1 = tested on: CAKI-1
OVCAR-5 = tested on: OVCAR-5
HOP-18 = tested on: HOP-18

O=Cc1ccccc1CCn1c(=O)c2cc3c(=O)n(CCc4ccccc4C=O)c(=O)c3cc2c1=O
GI50 (HCT-15): > 100 µM
GI50 (Malme-3M): > 100 µM (inactive)
GI50 (SNB-75): > 100 µM (inactive)
GI50 (NCI-H522): > 100 µM (inactive)
GI50 (ACHN): > 100 µM (inactive)
GI50 (UACC-62): > 100 µM (inactive)
GI50 (NCI-H226): > 100 µM (inactive)
GI50 (SK-MEL-5): > 100 µM (inactive)
GI50 (HCT-116): > 100 µM (inactive)
GI50 (DMS-114): > 100 µM (inactive)
GI50 (IGROV-1): > 100 µM (inactive)
GI50 (SN12C): > 100 µM (inactive)
GI50 (SF-539): > 100 µM (inactive)
GI50 (KM12): > 100 µM (inactive)
GI50 (NCI-H23): > 100 µM (inactive)
GI50 (UO-31): > 100 µM (inactive)
GI50 (HT-29): > 100 µM (inactive)
GI50 (OVCAR-8): > 100 µM (inactive)
GI50 (SNB-78): > 100 µM (inactive)
GI50 (DMS-273): > 100 µM (inactive)
GI50 (MOLT-4): > 100 µM (inactive)
GI50 (A498): > 100 µM (inactive)
GI50 (A549): > 100 µM (inactive)
GI50 (DLD-1): > 100 µM (inactive)
GI50 (SF-268): > 100 µM (inactive)
GI50 (SK-MEL-28): > 100 µM (inactive)
GI50 (LOX IMVI): > 100 µM (inactive)
GI50 (SF-295): > 100 µM (inactive)
GI50 (OVCAR-4): > 100 µM (inactive)
GI50 (CCRF-CEM): > 100 µM (inactive)
GI50 (NCI-H460): > 100 µM (inactive)
GI50 (HL-60): > 100 µM (inactive)
GI50 (SNB-19): > 100 µM (inactive)
GI50 (OVCAR-3): > 100 µM (inactive)
GI50 (SK-MEL-2): > 100 µM (inactive)
GI50 (LXFL 529): > 100 µM (inactive)
GI50 (U-251): > 100 µM (inactive)
GI50 (TK-10): > 100 µM (inactive)
GI50 (UACC-257): > 100 µM (inactive)
GI50 (RXF 393): > 100 µM (inactive)
GI50 (SK-OV-3): > 100 µM (inactive)
GI50 (K562): > 100 µM (inactive)
GI50 (SW-620): > 100 µM (inactive)

COc1cc2c(cc1OC)C1Cc3cc(OC)c(OC)cc3N1CC2 (centres undefined)
GI50 (Malme-3M): 20.9 µM (inactive)
GI50 (M19-MEL): 13.3 µM (inactive)
GI50 (EKVX): 27.7 µM (inactive)
GI50 (SNB-75): 21.4 µM (inactive)
GI50 (NCI-H522): 12.2 µM (inactive)
GI50 (ACHN): 22.3 µM (inactive)
GI50 (XF498): 18.5 µM (inactive)
GI50 (UACC-62): 26.1 µM (inactive)
GI50 (786-0): 17.7 µM (inactive)
GI50 (NCI-H226): 20.3 µM (inactive)
GI50 (HOP-62): 27.6 µM (inactive)
GI50 (HCT-116): 31.1 µM (inactive)
GI50 (DMS-114): 15.1 µM (inactive)
GI50 (IGROV-1): 52.6 µM (inactive)
GI50 (SN12C): 75.2 µM (inactive)
GI50 (COLO 205): 20.5 µM (inactive)
GI50 (KM12): 28.6 µM (inactive)
GI50 (NCI-H23): 29.5 µM (inactive)
GI50 (UO-31): 36.9 µM (inactive)
GI50 (HT-29): 40 µM (inactive)
GI50 (OVCAR-8): 34.8 µM (inactive)
GI50 (SNB-78): 39.8 µM (inactive)
GI50 (RPMI-8226): 28.8 µM (inactive)
GI50 (MOLT-4): 30.8 µM (inactive)
GI50 (SR): 35.9 µM (inactive)
GI50 (A498): 40.5 µM (inactive)
GI50 (HOP-92): 33 µM (inactive)
GI50 (A549): 26.9 µM (inactive)
GI50 (DLD-1): 39.8 µM (inactive)
GI50 (SF-268): 35 µM (inactive)
GI50 (SK-MEL-28): 32.1 µM (inactive)
GI50 (SF-295): 33.8 µM (inactive)
GI50 (OVCAR-4): 18.9 µM (inactive)
GI50 (CCRF-CEM): 43.5 µM (inactive)
GI50 (NCI-H460): 40.2 µM (inactive)
GI50 (M14): 20 µM (inactive)
GI50 (HL-60): 20.9 µM (inactive)
GI50 (KM-20L2): 38.6 µM (inactive)
GI50 (SNB-19): 36.2 µM (inactive)
GI50 (OVCAR-3): 31.9 µM (inactive)
GI50 (SK-MEL-2): 52.4 µM (inactive)
GI50 (LXFL 529): 19.3 µM (inactive)
GI50 (U-251): 35.4 µM (inactive)
GI50 (HCC 2998): 79.4 µM (inactive)
GI50 (TK-10): 23 µM (inactive)
GI50 (UACC-257): 42 µM (inactive)
GI50 (SK-OV-3): 31.6 µM (inactive)
GI50 (K562): 27.5 µM (inactive)
GI50 (SW-620): 29.9 µM (inactive)
GI50 (CAKI-1): 21.9 µM (inactive)
GI50 (OVCAR-5): > 100 µM (inactive)

N/N=C(\CCN1CCCC1)CC(c1ccccc1)c1c(O)c2ccccc2oc1=O (centres undefined)
GI50 (HCT-15): > 100 µM
GI50 (Malme-3M): > 100 µM (inactive)
GI50 (M19-MEL): > 100 µM (inactive)
GI50 (EKVX): 44.2 µM (inactive)
GI50 (HOP-18): > 100 µM (inactive)
GI50 (SNB-75): 45.3 µM (inactive)
GI50 (NCI-H522): > 100 µM (inactive)
GI50 (ACHN): > 100 µM (inactive)
GI50 (UACC-62): > 100 µM (inactive)
GI50 (786-0): > 100 µM (inactive)
GI50 (NCI-H226): > 100 µM (inactive)
GI50 (SK-MEL-5): > 100 µM (inactive)
GI50 (HOP-62): > 100 µM (inactive)
GI50 (HCT-116): > 100 µM (inactive)
GI50 (DMS-114): > 100 µM (inactive)
GI50 (IGROV-1): > 100 µM (inactive)
GI50 (SN12C): > 100 µM (inactive)
GI50 (SF-539): > 100 µM (inactive)
GI50 (COLO 205): > 100 µM (inactive)
GI50 (KM12): > 100 µM (inactive)
GI50 (NCI-H23): > 100 µM (inactive)
GI50 (HT-29): > 100 µM (inactive)
GI50 (OVCAR-8): > 100 µM (inactive)
GI50 (SNB-78): > 100 µM (inactive)
GI50 (DMS-273): > 100 µM (inactive)
GI50 (RPMI-8226): > 100 µM (inactive)
GI50 (MOLT-4): > 100 µM (inactive)
GI50 (SR): > 100 µM (inactive)
GI50 (HOP-92): 49 µM (inactive)
GI50 (A549): > 100 µM (inactive)
GI50 (DLD-1): > 100 µM (inactive)
GI50 (SF-268): > 100 µM (inactive)
GI50 (SK-MEL-28): > 100 µM (inactive)
GI50 (LOX IMVI): > 100 µM (inactive)
GI50 (SF-295): > 100 µM (inactive)
GI50 (OVCAR-4): > 100 µM (inactive)
GI50 (CCRF-CEM): > 100 µM (inactive)
GI50 (NCI-H460): > 100 µM (inactive)
GI50 (M14): > 100 µM (inactive)
GI50 (HL-60): > 100 µM (inactive)
GI50 (KM-20L2): > 100 µM (inactive)
GI50 (SNB-19): > 100 µM (inactive)
GI50 (OVCAR-3): > 100 µM (inactive)
GI50 (SK-MEL-2): > 100 µM (inactive)
GI50 (LXFL 529): > 100 µM (inactive)
GI50 (U-251): > 100 µM (inactive)
GI50 (HCC 2998): > 100 µM (inactive)
GI50 (TK-10): > 100 µM (inactive)
GI50 (UACC-257): > 100 µM (inactive)
GI50 (RXF 393): > 100 µM (inactive)
GI50 (SK-OV-3): > 100 µM (inactive)
GI50 (K562): > 100 µM (inactive)
GI50 (SW-620): > 100 µM (inactive)
GI50 (CAKI-1): > 100 µM (inactive)
GI50 (OVCAR-5): > 100 µM (inactive)
